# From patent publication US7247630B2, “Uses of tricyclic compounds” (Cell Therapeutics, Inc., priority 2000, dated 2007)
# Columns and labels:
# [1] = test system: IL-12 induced Th1 differentiation; assay: IL-12 dependent in vitro T-helper cell (Th1) differentiation assay; assay type: cell-based; details: 168 h, inhibition of IL-12 induced Th1 differentiation as defined by IFN-γ production upon secondary stimulation with anti-CD3 alone, splenic T cells, anti-CD3 and 5 U/ml IL-12, seven days
# Protocol: This example illustrates the inventive compounds' ability to suppress Th1 differentiation in vitro by blocking IL-12 signaling. Each of compounds [A through Y] were tested in an IL-12 dependent in vitro T-helper cell differentiation assay as described in LeGross et al., J. Exp. Med., 172:921-929 (1990). Recombinant IL-12 was used to induce Th1 differentiation. Splenic T cells were purified utilizing the antibodies RA3-3A1/6.1 (anti-B220), J11d and MAR18.5 (anti-rat kappa chain) to deplete the B cells by magnetic bead separation, as described in Coon et al, J. Immuno., 163:6567-6574 (1989). Splenic T cells were stimulated at 5×10^5/ml with insoluble anti-CD3 alone (145-2C11, Pharmingen, San Diego, Calif.), or anti-CD3 and 5 U/ml IL-12, with and without each inventive compound. After seven days, equal numbers of viable cells were restimulated for 24 hours with anti-CD3 without the inventive compounds, and the supernatants were collected and assayed for IFN-γ production. IFN-γ and IL-4 levels were measured by ELISA test specific for IFN-γ and IL-4.
# Th1 differentiation was induced by culturing anti-CD3 stimulated T cells in the presence of exogenous IL-12. […] It was observed that the presence of the tested compounds during T cell activation inhibited Th1 differentiation, which had been enhanced by the addition of exogenous IL-12. The values in the “IC50 μM” column were determined by measuring the inhibition of IL-12 induced Th1 differentiation as defined by IFN-γ production upon secondary stimulation with anti-CD3 alone. None of the compounds affected the viability or recovery of T cells after one week of culture
# [2] = test system: IL-4 induced T2 differentiation; assay: T2 differentiation assay (T0 cells stimulated in the presence of IL-4); assay type: cell-based; details: for IC50: T0 cells stimulated in the presence of IL-4, IL-4 secretion as readout; for IL-4 production of resulting effector cells / activation and proliferation of resulting effector cells: T0 cells stimulated in the presence of IL-4 and compound
# Protocol: (R)-7,8-Dihydro-3-(5-hydroxyhexyl)-1-methyl-1H-imidazo[2,1-f]-purine-2,4(3H,6H)-dione (CT-13430) (see Example 1) and (R)-3-(5-Hydroxyhexyl)-1-methyl-6,7,8,9-tetrahydro-pyrimido[2,1-f]purine-2,4(1H,3H)-dione (CT-13431) (see Example 4) were tested to determine their ability to block the differentiation of T0 cells to T2 effectors as judged by their relative inability to secrete the canonical T2 effector cytokine, IL-4, following treatment with the compounds. In a series of experiments analogous to the T1 differentiation assay of Example 10 (in which T0 cells were induced to become T1 effectors by polyclonal stimulation in the presence of IL-12), the above compounds were effective in a T2 differentiation assay in which T0 cells are stimulated in the presence of IL-4, which affects T2 differentiation.
IC50 [1] [µM],IC50 [2] [µM],Compound,IL-4 production of resulting effector cells [2],activation and proliferation of resulting effector cells [2]
33,–,"C[C@@H](O)CCCCn1c(=O)c2c(nc3n2CCS3)n(C)c1=O [compound 13421, (R)-6,7-Dihydro-3-(5-hydroxyhexyl)-1-methyl-thiazolo[2,3-f]purine-2,4 (1H,3H)-dione]",–,–
17,14,"C[C@@H](O)CCCCn1c(=O)c2c(nc3n2CCN3)n(C)c1=O [compound 13430, (R)-7,8-Dihydro-3-(5-hydroxyhexyl)-1-methyl-1H-imidazo[2,1-f]-purine-2,4(3H,6H)-dione]",deficient in IL-4 production,proliferated normally
11,13,"C[C@@H](O)CCCCn1c(=O)c2c(nc3n2CCCN3)n(C)c1=O [compound 13431, (R)-3-(5-Hydroxyhexyl)-1-methyl-6,7,8,9-tetrahydro-pyrimido[2,1-f]purine-2,4(1H,3H)-dione]",deficient in IL-4 production,proliferated normally
22,–,"C[C@@H](O)CCCCn1c(=O)c2c(nc3n2CCNC3)n(C)c1=O [compound 30099, (R)-3-(5-hydroxyhexyl)-1-methyl-6,7,8,9-tetrahydro-pyrazino[2,1-f]purine-2,4(1H,3H)-dione]",–,–
14,–,"C[C@@H](C#N)CCCCn1c(=O)c2c(nc3n2CCCN3)n(C)c1=O [compound 30146, (R)-3-(5-cyanohexyl)-1-methyl-6,7,8,9-tetrahydro-pyrimido[2,1-f]purine-2,4(1H,3H)-dione]",–,–
16,–,"C[C@@H](C#N)CCCCn1c(=O)c2c(nc3n2CCN3)n(C)c1=O [compound 30255, (R)-3-(5-Cyanohexyl)-7,8-dihydro-1-methyl-1H-imidazo[2,1-f]-purine-2,4(3H,6H)-dione]",–,–
24,–,CC(=O)N1CCn2c1nc1c2c(=O)n(CCCC[C@H](C)O)c(=O)n1C [compound 30256],–,–
15,–,CC(=O)N1CCn2c1nc1c2c(=O)n(CCCC[C@@H](C)N)c(=O)n1C [compound 30259],–,–
9,–,"CC(=O)N1CCn2c1nc1c2c(=O)n(CCCC[C@@H](C)O)c(=O)n1C [compound 30260, (R)-3-(5-Hydroxyhexyl)-1-methyl-6,7-dihydro-2,4-dioxo-8-N-acetyl-1H-imidazo[2,1-f]-purine]",–,–
34,–,C[C@@H](CCCCn1c(=O)c2c(nc3n2CCCN3C)n(C)c1=O)N(C)C [compound 30262],–,–
90,–,C[C@H](N)CCCCn1c(=O)c2c(nc3n2CCCN3)n(C)c1=O [compound 30263],–,–
39,–,C[C@@H](CCCCn1c(=O)c2c(nc3n2CCCN3)n(C)c1=O)N(C)C [compound 30264],–,–
34,–,C[C@H](CCCCn1c(=O)c2c(nc3n2CCCN3)n(C)c1=O)N(C)C [compound 30267],–,–
20,–,"C[C@@H](O)CCCCn1c(=O)c2nc3n(c2n(C)c1=O)CCN3 [compound 30268, (R)-3-(5-hydroxyhexyl)-1-methyl-1,6,7,8-tetrahydro-2H-imidazo[1,2-e]-purine-2,4(3H)-dione]",–,–
53,–,C[C@H](O)CCCCn1c(=O)c2c(nc3n2CCCN3)n(C)c1=O [compound 30269],–,–
